Assay results published in US20100119607A1, “BIOENHANCED COMPOSITIONS” (Rubicon Research Pvt. Ltd., priority 2005, published 2010).
In brackets after ≈: the same amount, converted by molar mass. Where a name gives a salt, the structure may show the parent alone. Read-outs that look alike come from different tables or passages of the source. Blank lines part the entries; values can stand above or below the compound they belong to.

Assays:
[1] = Solubility of candesartan cilexetil dispersions in 0.1N HCl; type: physicochemical; details: simulated gastric fluid
[2] = Solubility of eprosartan mesylate solid dispersions in 0.1N HCl; type: physicochemical; details: simulated gastric fluid, thermodynamic from solid
[3] = 0.1N HCL with 0.5% SLS, USP Type II, 50 RPM
[4] = background statement in detailed description; cited from earlier work

solubility [1]: 0.51 µg/mL (≈ 0.835 µM)
SMILES: CCOc1nc2cccc(C(=O)OC(C)OC(=O)OC3CCCCC3)c2n1Cc1ccc(-c2ccccc2-c2nnn[nH]2)cc1 (centres unmarked) [Candesartan cilexetil, candesartan cilexetil]

solubility [2]: 712 µg/mL
SMILES: CCCCc1ncc(/C=C(\Cc2cccs2)C(=O)O)n1Cc1ccc(C(=O)O)cc1 [Eprosartan mesylate, eprosartan mesylate]

% Cum. Dissolved ([3]; 0 minutes): 0%
% Cum. Dissolved ([3]; 5 minutes): 1.0%
% Cum. Dissolved ([3]; 10 minutes): 4.1%
% Cum. Dissolved ([3]; 15 minutes): 6.7%
% Cum. Dissolved ([3]; 30 minutes): 6.5%
% Cum. Dissolved ([3]; 60 minutes): 9.7%
% Cum. Dissolved ([3]; 120 minutes): 15.7%
% Cum. Dissolved ([3]; 120 minutes, listed as pure valsartan): 15%
SMILES: CCCCC(=O)N(Cc1ccc(-c2ccccc2-c2nnn[nH]2)cc1)[C@H](C(=O)O)C(C)C [Valsartan, valsartan]
bioavailability [4]: 10-25%
